≈ marks a conversion by molar mass, not a printed value.

Data set [1] in a line: Antioxidant activity assessed as DPPH radical scavenging activity incubated for 20 mins by spectrophotometry analysis. It is filed as physicochemical. A general note: The DPPH test is a chemical assay of radical scavenging.
Data set [2] has as its system Raji. The data set is described as follows: Cytotoxicity against human Raji cells expressing EBV-EA assessed as inhibition of TPA-induced EBV-EA activation after 48 hrs by trypan blue staining based immunofluorescence method relative to TPA. Format: functional, cell-based.
The nature of data set [3]: Antioxidant activity assessed as ABTS free radical scavenging activity. Format: physicochemical.
In a further data set the test system is Rattus norvegicus. The data set is described as follows: Antiinflammatory activity in rat assessed as inhibition of carrageenan-induced paw edema relative to control. It is filed as functional. Background: In the carrageenan paw model, swelling and tenderness develop within hours.
The subject of a further data set is Mus musculus. The experiment in a line: Analgesic activity in albino mouse assessed as inhibition of acetic acid-induced writhing response at 1 mmol/kg relative to control. Format: functional.
For a further data set, the system named is OVCAR-8. The data set is described as follows: Resistance factor, ratio of IC50 for human multidrug resistant NCI/ADR-RES cells to IC50 for human OVCAR8 cells. Format: functional.
For data set [4], the system named is Raji. The data set is described as follows: Cytotoxicity against human Raji cells expressing EBV-EA assessed as inhibition of TPA-induced EBV-EA activation at 38 molar ratio after 48 hrs by trypan blue staining based immunofluorescence method relative to TPA. It is filed as functional.
Data set [5] is described as follows: Antiproliferative activity against human MM1S cells assessed as growth inhibition at 10 uM after 48 hrs by MTT assay relative to control. It is filed as functional. The note with it: MM1.S, read-out: GI. A general note: Tetrazolium assays rely on reduction of a dye to a coloured formazan, in cell work by metabolically active cells.
Data set [6] is described as follows: Antiproliferative activity against human RPMI8226 cells assessed as growth inhibition at 10 uM after 48 hrs by MTT assay relative to control. Format: functional. As to conditions: RPMI-8226, 48 h, read-out: GI.
Data set [7] can be described thus: Antiproliferative activity against human U266 cells assessed as growth inhibition at 10 uM after 48 hrs by MTT assay relative to control. Format: functional. As to conditions: U-266, 48 h, read-out: GI.
The subject of the next data set is Brain. The data set is described as follows: Antioxidant activity in Wistar rat brain homogenate assessed as inhibition of Fe(II)-induced lipid peroxidation. It is filed as functional, tissue-based.
Data set [8] can be described thus: Antioxidant activity assessed as DPPH radical scavenging activity. Format: physicochemical.
Data set [9] is described as follows: Potency index, ratio of alpha-tocopherol IC0.2 to compound IC0.2 for antioxidant activity by DPPH assay.
Data set [10] is described as follows: Potency index, ratio of ascorbic acid IC0.2 to compound IC0.2 for antioxidant activity by DPPH assay.
The next data set relates to Spilarctia obliqua. The data set is described as follows: Insecticidal activity against third-instar larval stage of Spilosoma obliqua Walker assessed as growth inhibition after 24 hrs by leaf disc method. It is filed as functional, organism-based.
The subject of data set [11] is Penicillium chrysogenum. The experiment in a line: Antifungal activity against Penicillium chrysogenum MTCC 616 assessed as growth inhibition after 5 to 7 days by broth dilution method. It is filed as functional.
The test system of a further data set is Rhizoctonia solani. The experiment in a line: Antifungal activity against Rhizoctonia solani Kuhn assessed as growth inhibition after 2 to 3 days by poisoned food method. It is filed as functional, organism-based.
In data set [12] the test system is Aspergillus oryzae. The data set is described as follows: Fungicidal activity against Aspergillus oryzae MTCC 262 after 5 to 7 days by agar well diffusion method. Format: functional.
The subject of data set [13] is Aspergillus flavus. The experiment in a line: Fungicidal activity against Aspergillus flavus MTCC 277 after 5 to 7 days by agar well diffusion method. It is filed as functional.
Data set [14] has as its system Aspergillus niger. The experiment in a line: Fungicidal activity against Aspergillus niger MTCC 218 after 5 to 7 days by agar well diffusion method. Format: functional.
Data set [15] concerns Aspergillus ochraceus. The data set is described as follows: Fungicidal activity against Aspergillus ochraceus MTCC 4643 after 5 to 7 days by agar well diffusion method. It is filed as functional.
Data set [16] concerns Fusarium oxysporum. The data set is described as follows: Fungicidal activity against Fusarium oxysporum MTCC 1755 after 5 to 7 days by agar well diffusion method. It is filed as functional.
Data set [17] relates to Penicillium chrysogenum. The experiment in a line: Fungicidal activity against Penicillium chrysogenum MTCC 616 after 5 to 7 days by agar well diffusion method. It is filed as functional.
In data set [18] the test system is Aspergillus oryzae. The data set is described as follows: Antifungal activity against Aspergillus oryzae MTCC 262 assessed as growth inhibition after 5 to 7 days by broth dilution method. Format: functional.
The test system of data set [19] is Aspergillus flavus. The experiment in a line: Antifungal activity against Aspergillus flavus MTCC 277 assessed as growth inhibition after 5 to 7 days by broth dilution method. Format: functional.
In data set [20] the test system is Aspergillus niger. The experiment in a line: Antifungal activity against Aspergillus niger MTCC 218 assessed as growth inhibition after 5 to 7 days by broth dilution method. It is filed as functional.
In data set [21] the test system is Aspergillus ochraceus. The experiment in a line: Antifungal activity against Aspergillus ochraceus MTCC 4643 assessed as growth inhibition after 5 to 7 days by broth dilution method. It is filed as functional.
The subject of data set [22] is Fusarium oxysporum. The experiment in a line: Antifungal activity against Fusarium oxysporum MTCC 1755 assessed as growth inhibition after 5 to 7 days by broth dilution method. Format: functional.
Data set [23] concerns Raji. The experiment in a line: Cytotoxicity against human Raji cells expressing EBV-EA assessed as inhibition of TPA-induced EBV-EA activation at 100 molar ratio after 48 hrs by trypan blue staining based immunofluorescence method relative to TPA. Format: functional.
Data set [24] deals with Raji. The data set is described as follows: Cytotoxicity against human Raji cells expressing EBV-EA assessed as inhibition of TPA-induced EBV-EA activation at 1000 molar ratio after 48 hrs by trypan blue staining based immunofluorescence method relative to TPA. It is filed as functional.
Another data set concerns NCI/ADR-RES. The experiment in a line: Cytotoxicity against human multidrug resistant NCI/ADR-RES cells overexpressing P-gp assessed as reduction in cell viability by MTT assay. It is filed as functional, cell-based.
Data set [25] can be described thus: Cytotoxicity against human OVCAR8 cells assessed as reduction in cell viability by MTT assay. It is filed as functional, cell-based. As to conditions: OVCAR-8.
Data set [26] deals with Raji. The experiment in a line: Cytotoxicity against human Raji cells expressing EBV-EA assessed as inhibition of TPA-induced EBV-EA activation at 500 molar ratio after 48 hrs by trypan blue staining based immunofluorescence method relative to TPA. It is filed as functional.
For data set [27], the system named is Raji. The data set is described as follows: Cytotoxicity against human Raji cells expressing EBV-EA assessed as inhibition of TPA-induced EBV-EA activation at 10 molar ratio after 48 hrs by trypan blue staining based immunofluorescence method relative to TPA. Format: functional.

Take `Cc1c(C)c2c(c(C)c1O)CCC(C)(C(=O)O)O2` (stereo not drawn) [TROLOX]: the IC50 in data set [1] came out at 260 µM.
`CC(=O)CCc1ccccc1` [BENZYLACETONE]: in the data set on Raji [2], the IC50 is 222 molar ratio.
Take `COc1cc(C(CC(C)=O)[Se]c2ccccc2)ccc1O` (stereo not drawn): in [3], the IC50 is 8 µM.
Turning to `COc1cc(/C=C/C(=O)CC(=O)C(C)c2ccc(CC(C)C)cc2)ccc1O` (stereo not drawn), in the data set on Rattus norvegicus, the “inhibition (INH)” value was 76%. Besides, the inhibition in vivo (commonly the percentage by which the read-out fell short of the control) at 1000 µmol/kg in the data set on Mus musculus was determined as 59%.
In the case of `COc1cc(/C=C/C(=O)/C=C/c2nc3cc(C)ccc3n2C)ccc1O`, the “Ratio IC50” value in the data set with OVCAR-8 is given as 1.7.
Take `CC(=O)C#Cc1ccccc1` [4-PHENYL-3-BUTYN-2-ONE]: in the data set on Raji [2], the IC50 is recorded as 48 molar ratio.
Take `C/C=C/c1ccc(O)c(OC)c1`: the “inhibition (INH)” value in the data set on Raji [4] was determined as 50%.
Consider `COc1ccc(/C=C/C(C)=O)cc1OC`, for which the results for the IC50 (in the data set with Raji [2]; in data set [1]) were 107 molar ratio and 20000 µM, respectively.
On to `COc1cc(/C=C/C(C)=O)ccc1OC1OC(CO)C(O)C(O)C1O` (stereo not drawn), for which the IC50 in [1] was found to be 7500 µM.
In the case of `COc1cc(/C=C/C(=O)/C=C/c2ccc3c(c2)C(=O)N(C2CCC(=O)NC2=O)C3=O)ccc1O` (stereo not drawn), the inhibition of growth at 10 µM in data set [5], in data set [6] and in data set [7] was at least 90% throughout.
For `CC(=O)/C=C/c1cccc(O)c1O`, the IC50 in the data set on Brain (Rattus norvegicus, Wistar, Brain) was 6.3 µM. In addition, in [8], the IC0.2 stood at 3.2 µM. The Ratio in data set [9] amounted to 2.
On to `COc1cc(/C=C/C(=O)CC(=O)/C=C/c2ccc(O)c(OC)c2)ccc1O` [CURCUMIN], for which the IC50 in the data set on Raji [2] came to 97 molar ratio.
On to `COc1cc(/C=C/C(C)=O)ccc1OC1OC(COC(C)=O)C(OC(C)=O)C(OC(C)=O)C1OC(C)=O` (stereo not drawn), for which the IC50 in data set [1] was 10000 µM.
Regarding `COc1cc(C(CC(C)=O)Sc2ccccc2)ccc1O` (stereo not drawn), in data set [3], the IC50 is 6.5 µM.
On to VITAMIN E, for which the IC50 in the data set on Brain came out at 2.5 µM. For the same compound, in data set [8], the IC0.2 turned out to be 8.3 µM.
In the case of `COc1ccc(/C=C/C(=O)/C=C/c2nc3cc(C)ccc3n2C)cc1O`, the “Ratio IC50” value with OVCAR-8 is on record as 1.7.
In the case of `CC(=O)/C=C/c1cc(O)ccc1O`, the IC0.2 in [8] came to 4.9 µM. Besides, the Ratio in [10] amounted to 5.
With `CC(C)Cc1ccc(C(C)C(=O)O)cc1` (stereo not drawn) [IBUPROFEN], in the data set on Rattus norvegicus, the “inhibition (INH)” value came to 73%. Moreover, in the data set with Mus musculus, the inhibition in vivo at 1000 µmol/kg was 69%.
With `COc1cccc(/C=C/C(C)=O)c1O`, in the data set on Raji [2], the IC50 is 50 molar ratio.
Consider `O=C1O[C@H]([C@@H](O)CO)C(O)=C1O` [ASCORBIC ACID], for which the IC0.2 in data set [8] was 23.7 µM.
Take `CCCCC/C=C/C(=O)/C=C/c1ccc(O)c(OC)c1`: the EC50 (in general, the concentration giving half of the maximal effect) in the data set with Spilarctia obliqua worked out at 3550 µg/mL (≈ 12.9 mM).
`COc1ccc(/C=C/C(=O)/C=C/c2nc3cc(O)ccc3n2C)cc1O`: the “Ratio IC50” value with OVCAR-8 stood at 1.4.
`COc1cc(/C=C/C(C)=O)ccc1O` [DEHYDROZINGERONE]: the MIC with Penicillium chrysogenum [11], in the data set with Aspergillus oryzae [18], in the data set with Aspergillus flavus [19], in the data set on Aspergillus niger [20], in the data set on Aspergillus ochraceus [21] and in the data set on Fusarium oxysporum [22] was 755 µM (≈ 145 µg/mL) each time. Besides, the IC50 is 8 µM in data set [3], 95 molar ratio in the data set on Raji [2] and 300 µM in [1]. Also, in the data set with Rhizoctonia solani, the EC50 came to 86.5 µg/mL (≈ 0.45 mM). The MFC in the data set on Aspergillus oryzae [12], against Aspergillus flavus [13], in the data set with Aspergillus niger [14], with Aspergillus ochraceus [15], in the data set with Fusarium oxysporum [16] and against Penicillium chrysogenum [17] was 880 µM (≈ 169 µg/mL) throughout.
`COc1ccc(/C=C/C(C)=O)cc1OCC=C(C)C`: the “inhibition (INH)” value with Raji [23] was 35%.
For the compound `COc1cc(/C=C/C(C)=O)ccc1OCC=C(C)C`, in the data set on Raji [24], the “inhibition (INH)” value amounted to 100%.
`COc1cc(/C=C/C(=O)/C=C/c2nc3c(C)cccc3n2C)ccc1O`: the figures for the IC50 (in the data set with NCI/ADR-RES; in data set [25]) were 23.2 µM and 0.7 µM, respectively. The “Ratio IC50” value in the data set with OVCAR-8 is on record as 33.1.
Turning to `COc1cc(/C=C/C(=O)C(=Cc2ccc3c(c2)C(=O)N(C2CCC(=O)NC2=O)C3=O)C(=O)/C=C/c2ccc(O)c(OC)c2)ccc1O` (stereo not drawn), the inhibition of growth at 10 µM in data set [5], in [6] and in [7] was at least 90% throughout.
`COc1cccc(/C=C/C(C)=O)c1OCC=C(C)C`: in the data set on Raji [26], the “inhibition (INH)” value was 80%.
Turning to `COc1ccc(/C=C/C(C)=O)c(OCC=C(C)C)c1`, the “inhibition (INH)” value in the data set with Raji [27] amounted to 11%.
Take `COc1cc(/C=C/C(C)=O)ccc1OC(C)=O`: the IC50 in data set [1] is 40000 µM.
